Test results from patent US10174015B2, “Substituted heterocyclic derivative, preparation method and use thereof” (Xiamen University, priority 2014, dated 2019).
Marks after values point to notes of the source that are not given here.

Key:
[1] = system: inflammatory abdominal pain caused by acetic acid; test: Abdominal inflammatory pain caused by acetic acid; format: in vivo, Kunming mice; conditions: mice, 10 mg/kg i.p. 1 h before acetic acid; indometacin 20 mg/kg (FIG. 4)
Description: (§1) In the Experimental example, compounds to be evaluated or compounds to be tested or test compounds used are the Compounds 1-46 prepared in the Examples according to the invention. In the Experimental example, all the agents for injection, including compounds to be evaluated or compounds to be tested or test compounds, and positive control drug, were dissolved in a mixed solvent of PEG400:Tween 80:normal saline (at a volume ratio of 5:5:90), at a concentration of 5 mg/mL.
Typical model for studying inflammation-induced visceral pain medically was used to evaluate the therapeutic effects of compounds on inflammatory visceral pain. The model can represent general visceral pain including, but not only limited to appendicitis, gastritis, pancreatitis, prostatitis, myocarditis, interstitial cystitis, pain caused by hepatic, gall or kidney stone, irritable bowel syndrome, and chronic pelvic pain syndrome.
Experimental Kunming mice (purchased by Xiamen University Laboratory Animal Center from Shanghai SLAC Laboratory Animal Co., Ltd) were in an experimental environment with free access to food and water for 1 week. The mice were fasted for 24 h before administration. The compound to be evaluated (10 mg/kg) was administered to the mice by intraperitoneal injection at 1 h before administration of acetic acid, wherein the positive control drug indometacin was administered at a dose of 20 mg/kg, and the blank control was normal saline. Acetic acid (50 μL, acetic acid dissolved in normal saline, at a concentration of 5%) was administered to the mice by intraperitoneal injection, and the mice were then placed in the observation cage. A video camera was used to record the behavior of the mice in the following 20 min. Pain-related behavior was analyzed statistically based on torsion times of the mice in said period.

SNI neuropathic pain = test: Neuropathic pain mouse model induced by spared nerve injury (SNI); format: in vivo, C57BL/6 mice; conditions: SNI mice; for effect compared to positive control drug gabapentin: 10 mg/kg i.p. vs gabapentin 100 mg/kg, 1 h after administration
Description: as §1
Neuropathic pain mouse model induced by spared nerve injury (SNI) is a common animal model for studying neuropathic pain medically. The invention uses the model to evaluate the therapeutic effects of the compounds on neuropathic pain, wherein the model can represent peripheral neuropathic pain including, but not limited to post-herpetic neuralgia, pain caused by diabetic perineuropathy, neurothlipsis and exudation caused by tumor, lumbar surgery failure syndrome, neuropathic pain caused by lumbar disc protrusion, postpartum neuralgia, trigeminal neuralgia, chemotherapy-induced multiple neuropathic pain, post-radiotherapy plexopathy, and radicular neuralgia.
C57BL/6 mice (purchased from Shanghai SLAC Laboratory Animal Co., Ltd) were anesthetized by intraperitoneal injection with pentobarbital sodium (40 mg/kg), and skin from knee joint to gluteal region was subjected to skin preparation and disinfection. After the mice were fixed, the knee joint part was cut about 1 cm longitudinally with bistoury, and muscle tissues were separated by blunt dissection to expose sciatic nerve. The tibial and common peroneal nerve branches of sciatic nerve stem were cut off carefully, and the cut was then stitched up. The mice was placed in a clean observation cage. In the sham-operation group, only sciatic nerve was exposed without cutting the tibial and common peroneal nerve branches. From the day before the experiment to 24 h after the operation, the plantar edges of the mice were stimulated everyday by […] (Ugo Basile Company (Italy), Product ID: 37450), and data was collected automatically to obtain the threshold value of mice to mechanical stimulation. […] The positive control drug gabapentin was administered at a dose of 100 mg/kg. All the agents to be injected were dissolved in a mixed solvent of PEG400:Tween 80:normal saline (at a volume ratio of 5:5:90), at a concentration of 5 mg/mL. By comparing the threshold values (the acting force of when the mouse retracting the paw) at different administration time in different administration groups, the compound was evaluated for its analgesic effect on neuropathic pain.

[2] = system: adjuvant-induced arthritis rat models; test: Adjuvant-induced osteoarthritis pain, foot swelling degree; format: in vivo, rats; conditions: 10 mg/Kg; for Foot swelling degree after inflammation: X ± S, n = 10; for effect of inhibiting osteoarthritis pain: rats, indometacin 10 mg/Kg
Description: Typical model for studying inflammatory pain medically was used to evaluate the therapeutic effects of compounds on inflammatory pain. 0.1 mL Freund's complete adjuvant was intradermally injected to toe of the left hind foot of the rats in each group to obtain adjuvant-induced arthritis rat models. Foot volume method was used to measure primary and secondary foot swelling degree (swelling degree=volume after inflammation−volume before inflammation), and polyarticular arthritis were scored (5 scoring grades: 0 represents no red swelling; 4 represents red swelling at all the paws including anklebone. The scores are accumulated according to the lesion degree of the rest three limbs not injected with adjuvant, and the highest score is 12). Before inflammation and at 6 h, 12 h, 18 h and 24 h after inflammation, Paw Volume Meter was used to measure the foot volume at the inflammatory side, and the swelling degree was calculated. The model can represent inflammatory pain including, but not only limited to: osteoarthritis pain and fibromyalgia syndrome, inflammatory pain of rheumatic and rheumatoid arthritis, inflammatory pain of endometriosis, inflammatory toothache, ankylosing spondylitis pain, and gouty arthritis pain.

[3] = 10 mg/kg i.p. (gabapentin 100 mg/kg), 4 h after administration
[4] = 10 mg/kg intraperitoneal, 1 h and 4 h after administration (FIGS. 1 and 2)

| SMILES | effect of inhibiting abdominal inflammatory pain [1] | effect of inhibiting central neuropathic pain (SNI neuropathic pain; [3]) | effect compared to positive control drug gabapentin (SNI neuropathic pain) | effect of inhibiting central neuropathic pain (SNI neuropathic pain; [4]) | Foot swelling degree after inflammation ([2]; 6 h) | Foot swelling degree after inflammation ([2]; 12 h) | Foot swelling degree after inflammation ([2]; 18 h) | Foot swelling degree after inflammation ([2]; 24 h) | effect of inhibiting osteoarthritis pain [2] | analgesic effect (SNI neuropathic pain; 10 mg/kg i.p., 10 h after administration (FIG. 3)) |
| --- | --- | --- | --- | --- | --- | --- | --- | --- | --- | --- |
| O=C(CCCCCc1cccc(Cl)c1)N1CCOC1=O [Compound 9, 3-Chlorophenylhexanoyl Oxazolidinone] | significant effects of inhibiting abdominal inflammatory pain | retained a relatively strong effect of inhibiting central neuropathic pain | not as effective as the control drug | significant effects of inhibiting central neuropathic pain | 0.44 ± 0.09^c mL | 0.75 ± 0.24^c mL | 1.24 ± 0.24^b mL | 1.06 ± 0.18^c mL | significant effects of inhibiting osteoarthritis pain |  |
| O=C(CCCCCc1ccccc1)N1CCOC1=O [Compound 2, Phenylhexanoyl Oxazolidinone] | significant effects of inhibiting abdominal inflammatory pain | retained a relatively strong effect of inhibiting central neuropathic pain | not as effective as the control drug | significant effects of inhibiting central neuropathic pain | 0.35 ± 0.07^c mL | 0.65 ± 0.13^c mL | 1.06 ± 0.14^c mL | 0.89 ± 0.21^c mL | significant effects of inhibiting osteoarthritis pain | still had a sustained analgesic effect |
